Test results: the NIST ThermoML archive (doi:10.1021/je200707b)
Numbers after ± are expanded uncertainties.

Key:
[1] = refractive index (Na D-line) (dimensionless); conditions: 298.15 K; 101.33 kPa; Liquid; Standard Abbe refractometry
[2] = 101.33 kPa, Liquid; for viscosity: Falling or rolling sphere viscometry; for mass density: Vibrating tube method

Row | SMILES | refractive index [1] | viscosity ([2]; 293.15 K) [mPa·s] | mass density ([2]; 293.15 K) [kg/m3] | viscosity ([2]; 298.15 K) [mPa·s] | mass density ([2]; 298.15 K) [kg/m3] | viscosity ([2]; 303.15 K) [mPa·s] | mass density ([2]; 303.15 K) [kg/m3] | viscosity ([2]; 308.15 K) [mPa·s] | mass density ([2]; 308.15 K) [kg/m3] | viscosity ([2]; 313.15 K) [mPa·s] | mass density ([2]; 313.15 K) [kg/m3]
1 | CC(=O)O.CCCCN [butylammonium acetate] | 1.4426 ± 0.0011 | 771.69 ± 71 | 959.61 ± 0.42 | 546.35 ± 44 | 956.44 ± 0.42 | 397.17 ± 28 | 953.33 ± 0.42 | 294.59 ± 18 | 950.15 ± 0.42 | 222.24 ± 12 | 946.98 ± 0.42
2 | CCCO [propan-1-ol] | 1.3834 ± 0.0011 | 2.229 ± 0.061 | 803.55 ± 0.37 | 1.975 ± 0.054 | 799.55 ± 0.37 | 1.757 ± 0.048 | 795.52 ± 0.37 | 1.568 ± 0.043 | 791.44 ± 0.37 | 1.406 ± 0.039 | 787.34 ± 0.37

Other lines, results leading:

Row | refractive index [1] | viscosity ([2]; 293.15 K) [mPa·s] | mass density ([2]; 293.15 K) [kg/m3] | viscosity ([2]; 298.15 K) [mPa·s] | mass density ([2]; 298.15 K) [kg/m3] | viscosity ([2]; 303.15 K) [mPa·s] | mass density ([2]; 303.15 K) [kg/m3] | viscosity ([2]; 308.15 K) [mPa·s] | mass density ([2]; 308.15 K) [kg/m3] | viscosity ([2]; 313.15 K) [mPa·s] | mass density ([2]; 313.15 K) [kg/m3] | SMILES
3 | 1.3973 ± 0.0011 | 2.983 ± 0.082 | 809.7 ± 0.38 | 2.617 ± 0.072 | 805.9 ± 0.38 | 2.306 ± 0.063 | 802.05 ± 0.37 | 2.04 ± 0.056 | 798.17 ± 0.37 | 1.811 ± 0.05 | 794.26 ± 0.37 | CCCCO [butan-1-ol]
4 | 1.3594 ± 0.0011 | 1.241 ± 0.034 | 789.54 ± 0.37 | 1.128 ± 0.031 | 785.25 ± 0.37 | 1.029 ± 0.028 | 780.93 ± 0.37 | 0.92 ± 0.025 | 776.57 ± 0.37 | 0.842 ± 0.023 | 772.18 ± 0.37 | CCO [ethanol]
5 | 1.3265 ± 0.0011 | 0.588 ± 0.016 | 791.28 ± 0.37 | 0.557 ± 0.015 | 786.56 ± 0.37 | 0.519 ± 0.014 | 781.83 ± 0.37 | 0.49 ± 0.013 | 777.07 ± 0.37 | 0.462 ± 0.013 | 772.29 ± 0.37 | CO [methanol]
